Results published in PMC12655527, “An Investigational Study on the Role of ADME Agents’ Genetic Variation on DD217 Pharmacokinetics and Safety Profile” (Pharmaceuticals, 2025).

Experiments:
[1] = system: patients undergoing knee replacement surgery; assay: Thromboembolic complications (DVT/PE) during 14-day therapy, phase II trial; type: in vivo, human; conditions: for With DVT/PE / Without DVT/PE: 40 mg/day, number of patients; for cases of DVT/PE / PE/DVT, n (safety outcomes): 14 days
From the text: The design, eligibility criteria, and outcomes of the phase II clinical trial evaluating the safety and tolerability of DD217 (NCT05189002, ClinicalTrials.gov) have been described previously. Briefly, this was a multicenter, double-blind, randomized, prospective phase II study designed to determine the optimal dosing regimen and to assess the safety and efficacy of DD217 for the prevention of venous thromboembolism (VTE) in patients undergoing knee replacement surgery. Patients were randomized into one of three groups: two groups received oral DD217 at doses of 40 mg or 60 mg once daily, starting on the morning of the first postoperative day, and one group received the active comparator, dalteparin sodium. The treatment duration was 14 days.
In total, seven cases of DVT/PE were documented during the trial: four in the DD217 40 mg/day group, one in the DD217 60 mg/day group, and two in the dalteparin sodium group. In addition, two bleeding events were recorded: one clinically relevant non-major bleed in the DD217 60 mg/day group and one clinically non-relevant minor bleed in the dalteparin sodium group.

[2] = system: Factor Xa; design: method as in PMID 29468977; conditions: preclinical studies; cited from earlier work

## CC(=N)N(C)c1ccc(C(=O)Nc2ccc(C)cc2C(=O)Nc2ccc(Cl)cn2)cc1.Cl [DD217, N-(5-chloropyridin-2-yl)-5-methyl-2-[4-(N-methylacetimidamido)benzamido]benzamide hydrochloride]
[1]; ABCB1 rs1045642 C/C (n 5)
  With DVT/PE: 3
  Without DVT/PE: 2
[1]; ABCB1 rs1045642 T/C (n 7)
  With DVT/PE: 1
  Without DVT/PE: 6
[1]; ABCB1 rs1045642 T/T (n 4)
  With DVT/PE: 0
  Without DVT/PE: 4
[1]; ABCB1 rs1128503 C/C (n 8)
  With DVT/PE: 3
  Without DVT/PE: 5
[1]; ABCB1 rs1128503 C/T (n 6)
  With DVT/PE: 1
  Without DVT/PE: 5
[1]; ABCB1 rs1128503 T/T (n 2)
  With DVT/PE: 0
  Without DVT/PE: 2
[1]; ABCB1 rs2032582 G/G (n 8)
  With DVT/PE: 3
  Without DVT/PE: 5
[1]; ABCB1 rs2032582 G/T (n 6)
  With DVT/PE: 1
  Without DVT/PE: 5
[1]; ABCB1 rs2032582 T/T (n 2)
  With DVT/PE: 0
  Without DVT/PE: 2
[1]; ABCB1 rs4148738 C/C (n 2)
  With DVT/PE: 0
  Without DVT/PE: 2
[1]; ABCB1 rs4148738 T/C (n 6)
  With DVT/PE: 1
  Without DVT/PE: 5
[1]; ABCB1 rs4148738 T/T (n 8)
  With DVT/PE: 3
  Without DVT/PE: 5
[1]; DD217 40 mg/day group (n = 16)
  cases of DVT/PE: four
[1]; DD217 40 mg/day oral, of 16 patients
  PE/DVT, n (safety outcomes): 4 n
[1]; DD217 60 mg/day group (n = 18)
  cases of DVT/PE: one
[1]; DD217 60 mg/day oral, of 18 patients
  PE/DVT, n (safety outcomes): 1 n
[2]
  affinity for the active site of factor Xa: high affinity
